# From patent US11446287B2, “Compounds and methods for EP300 or CBP modulation and indications therefor” (Opna Immuno-Oncology SA, priority 2019, dated 2022)
# pIC50: −log10 of the molar value.
# Target: T1, Recombinant human EP300 containing the bromodomain (EP300-BD (1040-1161)) (Homo sapiens, UniProt Q09472)
# T1 construct: Recombinant human EP300 bromodomain (EP300-BD (1040-1161)); made in house; host or cells: E. coli BL21-CodonPlus (DE3), modified pET vector
# T1 sequence (Q09472 1040-1161): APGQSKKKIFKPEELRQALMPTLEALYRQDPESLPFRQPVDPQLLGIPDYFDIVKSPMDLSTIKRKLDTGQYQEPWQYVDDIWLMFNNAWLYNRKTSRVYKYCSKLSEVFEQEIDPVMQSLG
# Test: EP300 Alphascreen binding assay
# Summary of the method: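 Displacement of a biotinylated acetyl-K56 histone H3 peptide from the N-His bromodomain construct (1040-1161) measured by AlphaScreen proximity, beads at 7.5 μg/ml final, read 60 min after addition. Protein, peptide and compound first incubated 1 h at room temperature, pH 7.5 HEPES buffer; IC50 by four-parameter logistic fit.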
row,SMILES,pIC50
1,"Cc1noc(C)c1-c1cnc2c(c1)c(-c1ccc(C(=O)O)cc1OC(F)(F)F)cn2-c1ccccc1F [P-0223, 4-(5-(3,5-dimethylisoxazol-4-yl)-1-(2-fluorophenyl)-1H-pyrrolo[2,3-b]pyridin-3-yl)-3-(trifluoromethoxy)benzoic acid]",6.00 to 10.00
2,"CCOc1cccc(Cl)c1-n1cc(-c2ccccc2)c2ncc(-c3c(C)noc3C)cc21 [P-0224, 4-(1-(2-chloro-6-ethoxyphenyl)-3-phenyl-1H-pyrrolo[3,2-b]pyridin-6-yl)-3,5-dimethylisoxazole]",5.10 to 6.00
3,"CCOc1ccc(C(=O)O)cc1-n1cc(-c2ccccc2)c2ncc(-c3c(C)noc3C)cc21 [P-0225, 3-(6-(3,5-dimethylisoxazol-4-yl)-3-phenyl-1H-pyrrolo[3,2-b]pyridin-1-yl)-4-ethoxybenzoic acid]",6.00 to 10.00
4,"Cc1noc(C)c1-c1cnc2c(c1)c(-c1ccc(C(=O)O)cc1OC(F)(F)F)cn2C1CCOCC1 [P-0226, 4-(5-(3,5-dimethylisoxazol-4-yl)-1-(tetrahydro-2H-pyran-4-yl)-1H-pyrrolo[2,3-b]pyridin-3-yl)-3-(trifluoromethoxy)benzoic acid]",6.00 to 10.00
5,"Cc1noc(C)c1-c1cnc2c(c1)c(-c1ccc(C(=O)O)cc1OC(F)(F)F)cn2C1CCC(F)(F)CC1 [P-0227, 4-(1-(4,4-difluorocyclohexyl)-5-(3,5-dimethylisoxazol-4-yl)-1H-pyrrolo[2,3-b]pyridin-3-yl)-3-(trifluoromethoxy)benzoic acid]",6.00 to 10.00
6,"Cc1noc(C)c1-c1cnc2c(c1)c(-c1ccc(C(=O)O)cc1OC(F)(F)F)c(C)n2-c1ccccn1 [P-0228, 4-(5-(3,5-dimethylisoxazol-4-yl)-2-methyl-1-(pyridin-2-yl)-1H-pyrrolo[2,3-b]pyridin-3-yl)-3-(trifluoromethoxy)benzoic acid]",6.00 to 10.00
7,"Cc1noc(C)c1-c1cnc2c(-c3ccc(F)cc3F)cn(-c3ccc(C(=O)O)cc3OC(F)(F)F)c2c1 [P-0229, 4-(3-(2,4-difluorophenyl)-6-(3,5-dimethylisoxazol-4-yl)-1H-pyrrolo[3,2-b]pyridin-1-yl)-3-(trifluoromethoxy)benzoic acid]",6.00 to 10.00
8,"Cc1noc(C)c1-c1cnc2c(c1)c(-c1c(F)cc(C(=O)O)cc1OC(F)(F)F)cn2C(C1CC1)C1CC1 [P-0230, 4-(1-(dicyclopropylmethyl)-5-(3,5-dimethylisoxazol-4-yl)-1H-pyrrolo[2,3-b]pyridin-3-yl)-3-fluoro-5-(trifluoromethoxy)benzoic acid]",6.00 to 10.00
9,"Cc1ccccc1-n1cc(-c2ccc(C(=O)O)cc2OC(F)(F)F)c2cc(-c3c(C)noc3C)cnc21 [P-0231, 4-(5-(3,5-dimethylisoxazol-4-yl)-1-(o-tolyl)-1H-pyrrolo[2,3-b]pyridin-3-yl)-3-(trifluoromethoxy)benzoic acid]",6.00 to 10.00
10,"Cc1noc(C)c1-c1cnc2c(c1)c(-c1ccc(C(=O)O)cc1OC(F)(F)F)cn2-c1ccc(F)cc1F [P-0232, 4-(1-(2,4-difluorophenyl)-5-(3,5-dimethylisoxazol-4-yl)-1H-pyrrolo[2,3-b]pyridin-3-yl)-3-(trifluoromethoxy)benzoic acid]",6.00 to 10.00
11,"Cc1noc(C)c1-c1cnc2c(c1)c(-c1ccc(C(=O)O)cc1OC(F)(F)F)cn2-c1cc(F)ccc1F [P-0233, 4-(1-(2,5-difluorophenyl)-5-(3,5-dimethylisoxazol-4-yl)-1H-pyrrolo[2,3-b]pyridin-3-yl)-3-(trifluoromethoxy)benzoic acid]",6.00 to 10.00
12,"Cc1noc(C)c1-c1cnc2c(-c3ccc(C(=O)O)cc3F)c(C(F)(F)F)n([C@@H](C)c3ccccn3)c2c1 [P-0234, (S)-4-(6-(3,5-dimethylisoxazol-4-yl)-1-(1-(pyridin-2-yl)ethyl)-2-(trifluoromethyl)-1H-pyrrolo[3,2-b]pyridin-3-yl)-3-fluorobenzoic acid]",6.00 to 10.00
13,"Cc1cc(C(=O)O)ccc1-c1c(C(F)(F)F)n([C@@H](C)c2ccccn2)c2cc(-c3c(C)noc3C)cnc12 [P-0235, (S)-4-(6-(3,5-dimethylisoxazol-4-yl)-1-(1-(pyridin-2-yl)ethyl)-2-(trifluoromethyl)-1H-pyrrolo[3,2-b]pyridin-3-yl)-3-methylbenzoic acid]",6.00 to 10.00
14,"COc1cc(C(=O)O)ccc1-c1c(C(F)(F)F)n([C@@H](C)c2ccccn2)c2cc(-c3c(C)noc3C)cnc12 [P-0236, (S)-4-(6-(3,5-dimethylisoxazol-4-yl)-1-(1-(pyridin-2-yl)ethyl)-2-(trifluoromethyl)-1H-pyrrolo[3,2-b]pyridin-3-yl)-3-methoxybenzoic acid]",6.00 to 10.00
15,"Cc1noc(C)c1-c1cnc2c(-c3cn(C)nc3C3CC3)c(C(F)(F)F)n([C@@H](C)c3ccccn3)c2c1 [P-0237, (S)-4-(3-(3-cyclopropyl-1-methyl-1H-pyrazol-4-yl)-1-(1-(pyridin-2-yl)ethyl)-2-(trifluoromethyl)-1H-pyrrolo[3,2-b]pyridin-6-yl)-3,5-dimethylisoxazole]",6.00 to 10.00
16,"Cc1noc(C)c1-c1cnc2c(-c3cc(C(=O)O)ccc3F)c(C(F)(F)F)n([C@@H](C)c3ccccn3)c2c1 [P-0238, (S)-3-(6-(3,5-dimethylisoxazol-4-yl)-1-(1-(pyridin-2-yl)ethyl)-2-(trifluoromethyl)-1H-pyrrolo[3,2-b]pyridin-3-yl)-4-fluorobenzoic acid]",6.00 to 10.00
17,"COc1ccc(C(=O)O)cc1-c1c(C(F)(F)F)n([C@@H](C)c2ccccn2)c2cc(-c3c(C)noc3C)cnc12 [P-0239, (S)-3-(6-(3,5-dimethylisoxazol-4-yl)-1-(1-(pyridin-2-yl)ethyl)-2-(trifluoromethyl)-1H-pyrrolo[3,2-b]pyridin-3-yl)-4-methoxybenzoic acid]",6.00 to 10.00
18,"Cc1noc(C)c1-c1cnc2c(-c3cc(F)cc(C(=O)O)c3)c(C(F)(F)F)n([C@@H](C)c3ccccn3)c2c1 [P-0240, (S)-3-(6-(3,5-dimethylisoxazol-4-yl)-1-(1-(pyridin-2-yl)ethyl)-2-(trifluoromethyl)-1H-pyrrolo[3,2-b]pyridin-3-yl)-5-fluorobenzoic acid]",6.00 to 10.00
19,"Cc1noc(C)c1-c1cnc2c(-c3cc(Cl)cc(C(=O)O)c3)c(C(F)(F)F)n([C@@H](C)c3ccccn3)c2c1 [P-0241, (S)-3-chloro-5-(6-(3,5-dimethylisoxazol-4-yl)-1-(1-(pyridin-2-yl)ethyl)-2-(trifluoromethyl)-1H-pyrrolo[3,2-b]pyridin-3-yl)benzoic acid]",6.00 to 10.00
20,"Cc1noc(C)c1-c1cnc2c(-c3ccc(C(=O)O)c(F)c3)c(C(F)(F)F)n([C@@H](C)c3ccccn3)c2c1 [P-0242, (S)-4-(6-(3,5-dimethylisoxazol-4-yl)-1-(1-(pyridin-2-yl)ethyl)-2-(trifluoromethyl)-1H-pyrrolo[3,2-b]pyridin-3-yl)-2-fluorobenzoic acid]",5.10 to 6.00
